Laboratory results from patent US20050113337A1, “Enhancement of oral bioavailability of non-emulsified formulations of prodrug esters with lecithin” (TAP Pharmaceutical Products, Inc., priority 2001, published 2005).

Legend:
[1] = Solubility of cefditoren pivoxil in lecithin dispersions; assay type: physicochemical
Method: The solubility of cefditoren pivoxil in various lecithins was determined as follows. Three types of lecithin were tested: lecithin (LECI-PC 35P available from Traco Labs, IL), modified lecithin (containing 70% maltodextrin and 30% phosphatidyl choline; ALCOLEC SM 100 available from American Lecithin Inc. of CT) and hydroxylated lecithin (CENTROLENE A, available from Central Soya, IN). 5%, 10% and 15% suspensions of each type of lecithin were made up in distilled deionized water to form the test dispersions. Cefditoren pivoxil (available from Meiji Saika Kaisha Ltd of Japan) was added to each test dispersion. Each sample was vortexed for one minute, sonicated for two minutes, vortexed again for one minute and then centrifuged at 2000 rpm for ten minutes at room temperature. The resulting supernatant fraction was collected, filtered through a 0.45 μm filter and analyzed by HPLC.

[2] = test system: Carboxylesterase from porcine liver; experiment: Esterase degradation of cefditoren pivoxil; assay type: in vitro ADME; details: 20 minutes, 37° C.; for amount of cefditoren pivoxil remaining: esterase; for % cefditoren pivoxil remaining: simulated intestinal fluid
Method: First, a test was performed to determine whether cefditoren pivoxil is degraded by esterase. 25 mg of cefditoren pivoxil (available from Meiji Saika Kaisha Ltd of Japan) was dissolved in 100 ml of an aqueous solution containing 10% dimethylsulfoxide and 0.1 N. hydrochloric acid to make up an 0.25 mg/ml solution. Carboxylesterase (also referred to as esterase herein) from porcine liver (15 mg protein/ml, 250 units/mg protein, available from Sigma-Aldrich) was dissolved in simulated intestinal fluid (SIF having no added pancreatin, available from Sigma-Aldrich) to make up a solution having 0.5 units/ml.
2 ml of the cefditoren pivoxil solution was then mixed with 2 ml of the esterase solution and 2 ml of simulated intestinal fluid. This mixture was allowed to react for 20 minutes at 37° C. and then the reaction was quenched with 1.0 ml of acetonitrile. This procedure was repeated with esterase at two other concentrations.
The experimental procedure was as described above, except that the cefditoren pivoxil was dissolved in 3% lecithin (LECI-PC 35 P, available from Traco Labs of IL).
The amount of cefditoren pivoxil remaining in each of the samples was determined by HPLC, and compared to the amount of cefditoren pivoxil of a control solution. The control solution was 2.0 ml cefditoren pivoxil, 2.0 ml of 10% modified lecithin solution and 2.0 ml simulated intestinal fluid incubated and then quenched as above.

Substance: cefditoren pivoxil
- solubility ([1]; in aqueous lecithin solution (LECI-PC 35P)): 678.5 µg/mL
- solubility ([1]; in hydroxylated lecithin (CENTROLENE A)): 715.0 µg/mL
- solubility ([1]; in modified lecithin (ALCOLEC SM 100)): 868.1 µg/mL
- solubility ([1]; in water alone): 31.8 µg/mL
- amount of cefditoren pivoxil remaining ([2]; cefditoren pivoxil dissolved in 3% lecithin (LECI-PC 35 P)): 57.4%
- amount of cefditoren pivoxil remaining ([2]; control (non-lecithin containing) solution): 7%
- % cefditoren pivoxil remaining ([2]; esterase concentration 0.05 units/ml): 81.9%
- % cefditoren pivoxil remaining ([2]; esterase concentration 0.5 units/ml): 4.5%
- % cefditoren pivoxil remaining ([2]; esterase concentration 5 units/ml): 0.3%
